Measured values taken from the NIST ThermoML archive (doi:10.1016/j.jct.2013.04.013).

Columns and labels:
[1] = 101.33 kPa, Liquid; for thermal conductivity: Hot wire method; for viscosity: Cone and plate viscometry
[2] = molar heat capacity at constant pressure; conditions: 101.33 kPa, Liquid, Small sample (50 mg) DSC

CCCCCCCCCCCCCC[P+](CCCCCC)(CCCCCC)CCCCCC.FC(F)(F)C(F)(F)[P-](F)(F)(F)(C(F)(F)C(F)(F)F)C(F)(F)C(F)(F)F
[1]
Conditions	thermal conductivity [W/m/K]
282.19 K	0.126
292.99 K	0.125
298.41 K	0.125
303.54 K	0.125
314.37 K	0.123
325.65 K	0.123
334.58 K	0.123
344.18 K	0.123
355.07 K	0.121

CC(CC(C)(C)C)CP(=O)([O-])CC(C)CC(C)(C)C.CCCCCCCCCCCCCC[P+](CCCCCC)(CCCCCC)CCCCCC
Conditions	molar heat capacity at constant pressure [J/K/mol]	thermal conductivity [W/m/K]	viscosity [mPa·s]
[1], 282.47 K	–	0.137	–
[1], 292.94 K	–	0.136	–
[1], 298.04 K	–	0.135	–
[1], 298.15 K	–	–	847.3
[1], 303.15 K	–	0.135	–
[1], 313.15 K	–	–	568.54
[1], 313.45 K	–	0.133	–
[1], 323.15 K	–	–	387.46
[1], 323.45 K	–	0.132	–
[1], 333.15 K	–	–	125.61
[1], 333.55 K	–	0.131	–
[1], 343.59 K	–	0.131	–
[1], 353.62 K	–	0.131	–
[2], 293.15 K	1619.2	–	–
[2], 298.15 K	1634.7	–	–
[2], 303.15 K	1644.7	–	–
[2], 308.15 K	1655.6	–	–
[2], 313.15 K	1667.2	–	–
[2], 318.15 K	1678	–	–
[2], 323.15 K	1688	–	–
[2], 328.15 K	1698.1	–	–
[2], 333.15 K	1708.2	–	–
[2], 338.15 K	1717.4	–	–
[2], 343.15 K	1725.9	–	–
[2], 348.15 K	1736	–	–
[2], 353.15 K	1745.3	–	–
[2], 358.15 K	1754.5	–	–
[2], 363.15 K	1763.8	–	–

CCCCCCCCCCCCCC[P+](CCCCCC)(CCCCCC)CCCCCC.O=S(=O)([N-]S(=O)(=O)C(F)(F)F)C(F)(F)F
Conditions	molar heat capacity at constant pressure [J/K/mol]	thermal conductivity [W/m/K]
[1], 285.65 K	–	0.139
[1], 293.14 K	–	0.138
[1], 297.72 K	–	0.137
[1], 302.37 K	–	0.137
[1], 313.04 K	–	0.135
[1], 323.58 K	–	0.134
[1], 333.55 K	–	0.135
[2], 333.15 K	1367.6	–
[2], 338.15 K	1372.2	–
[2], 343.15 K	1378.3	–
[2], 348.15 K	1386.7	–
[2], 353.15 K	1395.1	–
[2], 358.15 K	1403.5	–
[2], 363.15 K	1413.4	–
[2], 368.15 K	1426.4	–
[2], 373.15 K	1435.6	–
[2], 378.15 K	1440.9	–
[2], 383.15 K	1450.1	–
[2], 388.15 K	1457.7	–
[2], 393.15 K	1465.4	–
[2], 398.15 K	1473.8	–
[2], 403.15 K	1480.6	–
[2], 408.15 K	1488.3	–
[2], 413.15 K	1495.9	–
[2], 418.15 K	1502.8	–
[2], 423.15 K	1509.7	–
[2], 428.15 K	1517.3	–
[2], 438.15 K	1533.4	–
[2], 443.15 K	1536.4	–
[2], 448.15 K	1542.5	–
[2], 453.15 K	1550.2	–
[2], 458.15 K	1556.3	–
[2], 463.15 K	1560.9	–

CCCC[P+](C)(CCCC)CCCC.COS(=O)(=O)[O-] [tributylmethylphosphonium methyl sulfate]
[1]
Conditions	thermal conductivity [W/m/K]
283.34 K	0.157
293.28 K	0.156
298.36 K	0.155
303.45 K	0.155
313.5 K	0.153
323.6 K	0.153
333.58 K	0.153
343.61 K	0.153
353.51 K	0.153
